Each structure is given as a SMILES string.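 Exposure lasted 48 hours, with cells grown in 96-well plates and compounds tested at five concentrations. GI50: concentration for 50% inhibition of growth.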 Activity calls are given as the source filed them. Rule as the data show it: active = GI50 up to about 1.1 µM and inactive = higher.

The text below walks through data of ChEMBL document CHEMBL1201862, “PubChem BioAssay data set” (2004).

Common to all, as to test: growth of human tumour cells (NCI), 48 h
The subject of assay [1] is DLD-1.
Assay [2] concerns DMS-114.
Assay [3] relates to HOP-18.
The test system of assay [4] is LXFL 529.
Assay [5] has as its system M19-MEL.
For assay [6], the system named is RXF 631.
In assay [7] the test system is SNB-78.
In assay [8] the test system is XF498.
Assay [9] has as its system DMS-273.

In the case of `C=CCO[C@H]1CC[C@@]2(C)C(CC[C@]3(C)C2CC=C2[C@@H]4[C@@H](C)C(C)CC[C@]4(C(=O)O)CCC23C)C1(C)C` (stereo partly drawn), the GI50 in assay [1] was 17.3 µM (inactive); in assay [2], 16.7 µM (inactive); in assay [3], 22 µM (inactive); in [4], 12.6 µM (inactive); in assay [5], 17.7 µM (inactive); in [6] it was 13.7 µM (inactive). Moreover, the results for the GI50 in assay [7] and in [8] were 17.6 µM (inactive) and 7.1 µM (inactive), respectively.
As for `CC1=C(N2CC2)C(=O)c2nc3n(c2C1=O)CCC3OC(=O)CCl` (stereo not drawn), the GI50 in assay [1] was 0.101 µM (active); in assay [2], 0.171 µM (active); in [9] it was 0.049 µM (active); in [3], 0.043 µM (active); in [4] it was 0.0776 µM (active); in assay [5], 0.0817 µM (active). For the same compound, the GI50 is 0.193 µM (active) in assay [7] and 0.0301 µM (active) in assay [8].
As for `CN(C)CCONC(=O)C12CC3CC(CC(C3)C1)C2`, the GI50 in assay [1] is > 100 µM (inactive); in assay [2] it was > 100 µM (inactive); in [4] it was > 100 µM (inactive); in assay [5], > 100 µM (inactive); in assay [6] it was > 100 µM (inactive); in [7], 26.2 µM (inactive). Also, in [8], the GI50 was > 100 µM (inactive).
For `CCc1cccc(C(C)CC)c1/N=C(/NC(=O)c1ccccc1C(=O)N/C(=N/c1c(CC)cccc1C(C)CC)SC)SC` (stereo not drawn), the GI50 was 58.5 µM (inactive) in assay [1]; 26.8 µM (inactive) in [3]; 39.9 µM (inactive) in assay [4]; 51.4 µM (inactive) in assay [5]; 51.2 µM (inactive) in assay [6]; 21.5 µM (inactive) in assay [7]. Further, the GI50 in assay [8] is 48.4 µM (inactive).
As to `CO[C@H]1Nc2c(ccc(C)c2O)C(=O)N2C=C(/C=C/C(N)=O)C[C@@H]12` [ANTHRAMYCIN METHYL ETHER], the GI50 was 0.118 µM (active) in assay [1]; 0.0213 µM (active) in assay [2]; 0.0295 µM (active) in [9]; 0.444 µM (active) in assay [3]; 0.0269 µM (active) in assay [5]; 0.0258 µM (active) in assay [7]. In assay [8], the GI50 is < 0.01 µM (active).
With `COc1c(CC(C)=O)ccc2c1C(=O)c1ccc(C=O)c(OC(C)=O)c1C2=O`, the GI50 in assay [1] is 3.62 µM (inactive); in [2] it was 12.8 µM (inactive); in [9], 10.2 µM (inactive); in assay [3], 22.1 µM (inactive); in [4], 5.53 µM (inactive); in assay [6] it was 20.6 µM (inactive). For the same compound, in assay [7], the GI50 was 18.2 µM (inactive).
Turning to `CCOc1ccccc1NC(=O)C(=O)c1c(O)c2ccc(O)cc2oc1=O`, the GI50 in assay [1], in [9], in assay [3], in [4], in [5] and in [6] was > 100 µM (inactive) throughout. For the same compound, in assay [7], the GI50 is > 100 µM (inactive).
In the case of `COc1cc(OC)c2c(c1)C(=O)C(CC(C)O)=CC2=O` (stereo not drawn), the GI50 in assay [1] was 13.7 µM (inactive); in assay [2], 3.08 µM (inactive); in [9] it was 16.6 µM (inactive); in assay [3], 16.7 µM (inactive); in assay [4], 13.2 µM (inactive); in assay [5], 3.42 µM (inactive). Also, the GI50 in assay [7] was 15.3 µM (inactive); in assay [8] it was 14 µM (inactive).
In the case of `CN(C)/N=C(/c1nc2ccc([N+](=O)[O-])cc2nc1O)C(O)c1ccco1` (stereo not drawn), the GI50 is 84.1 µM (inactive) in assay [1]; 16.4 µM (inactive) in [2]; 91 µM (inactive) in assay [9]; 58.1 µM (inactive) in assay [4]; > 100 µM (inactive) in [5]; > 100 µM (inactive) in assay [7]. The GI50 in assay [8] was > 100 µM (inactive).
As to `CCOc1ccccc1NC(=O)C(C#N)C1=C(Cl)C(=O)c2ccccc2C1=O` (stereo not drawn), the GI50 was 1.85 µM (inactive) in assay [1]; 0.743 µM (active) in [2]; 1.88 µM (inactive) in [9]; 1.5 µM (inactive) in [3]; 1.85 µM (inactive) in assay [4]; 0.177 µM (active) in assay [5]. Also, the GI50 in assay [6] was 2.09 µM (inactive); in assay [7] it was 3.32 µM (inactive); in [8], 2.29 µM (inactive).
With `CCCC(C)n1c(C)nc2c1C(=O)c1ccccc1C2=O` (stereo not drawn), the GI50 in assay [1] is 8.43 µM (inactive); in assay [9], 7.24 µM (inactive); in assay [4], 12.7 µM (inactive); in assay [5], 12.6 µM (inactive); in assay [7], 21.9 µM (inactive); in assay [8] it was 20.8 µM (inactive).
As to `CCCCCC(=O)N[C@H]1CCc2cc(OC)c(OC)c(OC)c2-c2ccc(SC)c(=O)cc21`, the GI50 in [1] was < 0.01 µM (active); in assay [2], < 0.01 µM (active); in assay [4] it was 0.0204 µM (active); in assay [5], 0.0229 µM (active); in [7], 0.00419 µM (active); in assay [8], 0.0239 µM (active).
As to `C/C(=C\c1ccccc1)C(O)S(=O)(=O)O` (stereo not drawn), the GI50 in assay [1], in assay [2], in [9], in assay [3], in assay [4] and in assay [5] was > 100 µM (inactive) throughout.
As to `CC1CCC(C(C)(C)c2ccccc2)C(=O)C1` (stereo not drawn), the GI50 in assay [1] is > 100 µM (inactive); in [2] it was 75.7 µM (inactive); in assay [9], > 100 µM (inactive); in [3], 24.8 µM (inactive); in assay [4], > 100 µM (inactive); in assay [5] it was > 100 µM (inactive). Also, the GI50 in assay [7] and in assay [8] was > 100 µM (inactive) each time.
As to `O=C1c2c(c(-c3ccccc3)c(-c3ccccc3)c(-c3ccccc3)c2-c2ccccc2)C(=O)N1c1cccc(Br)c1`, the GI50 in assay [1], in assay [2], in [9], in assay [3], in assay [4] and in assay [5] was > 100 µM (inactive) throughout. Besides, the GI50 in assay [7] and in assay [8] was > 100 µM (inactive) throughout.
Take `COc1c2c(c(OC)c3c(=O)cc(C/C(=N/NC(=O)C[n+]4ccccc4)C(=O)Nc4cc(C)ccc4C)oc13)OCO2`: the GI50 in [1], in [2], in assay [9], in [4], in assay [5] and in assay [7] was > 100 µM (inactive) in each case.
`CCCCC(=O)OCC(=O)[C@]1(O)Cc2c(O)c3c(c(O)c2[C@@H](OC2CC(NC(=O)C(F)(F)F)C(O)C(C)O2)C1)C(=O)c1c(OC)cccc1C3=O` (stereo partly drawn): the GI50 was 0.538 µM (active) in assay [1]; 0.268 µM (active) in assay [2]; 0.138 µM (active) in [9]; 0.743 µM (active) in [4]; 0.331 µM (active) in [5]; 0.682 µM (active) in [6]. Moreover, in [8], the GI50 is 0.161 µM (active).
For `Cc1nc2c(n1CCN(C)C)C(=O)c1ccccc1C2=O`, the GI50 is 13.5 µM (inactive) in assay [1]; 13.5 µM (inactive) in assay [9]; 17.9 µM (inactive) in assay [4]; 2.02 µM (inactive) in [5]; 24.7 µM (inactive) in [7]; 18.3 µM (inactive) in assay [8].
Consider `CC(C)(c1ccccc1)c1ccc(Oc2ccc3c(c2)-c2nc-3nc3[nH]c(nc4nc(nc5[nH]c(n2)c2ccc(Oc6ccc(C(C)(C)c7ccccc7)cc6)cc52)-c2cc(Oc5ccc(C(C)(C)c6ccccc6)cc5)ccc2-4)c2ccc(Oc4ccc(C(C)(C)c5ccccc5)cc4)cc32)cc1`, for which the GI50 in assay [1], in assay [9], in assay [4], in assay [5], in [6] and in [7] was > 100 µM (inactive) throughout. Also, in assay [8], the GI50 was 78 µM (inactive).
Take `COC(=O)CCC(NC(=S)N/N=C(\C)c1ccccn1)C(=O)OC` (stereo not drawn): the GI50 was 43 µM (inactive) in assay [1]; 20.6 µM (inactive) in assay [2]; 41.4 µM (inactive) in assay [3]; 40.4 µM (inactive) in [4]; 37.2 µM (inactive) in [5]; 34.1 µM (inactive) in [6]. The GI50 in assay [8] was > 100 µM (inactive).
Take `CC1CN(c2ccc(Cl)cc2)CC(C)OC(=O)O1` (stereo not drawn): the GI50 in assay [1], in [2], in assay [9], in assay [4], in assay [5] and in assay [7] was > 100 µM (inactive) throughout. In addition, the GI50 in [8] is > 100 µM (inactive).
`O=C(NC(=O)c1cn(CCNCCO)c(=O)[nH]c1=O)OCc1ccccc1`: the GI50 in assay [1] was > 100 µM (inactive); in [2] it was > 100 µM (inactive); in assay [3], < 0.01 µM (active); in [4] it was > 100 µM (inactive); in assay [5], > 100 µM (inactive); in [7] it was > 100 µM (inactive).
Regarding `CCOc1ccc(NCc2cc(OC)c(OC)c(OC)c2)cc1`, the GI50 in assay [1] is 1.11 µM (active); in [2], 0.287 µM (active).
As for `CCN1C(=O)C(=CN)C(=O)N(CC)C1=O`, the GI50 in [1] is > 100 µM (inactive); in assay [2], > 100 µM (inactive); in [9] it was > 100 µM (inactive); in assay [3], 24.7 µM (inactive); in assay [4], > 100 µM (inactive); in assay [5] it was > 100 µM (inactive). Moreover, the GI50 in assay [6] and in assay [7] was > 100 µM (inactive) throughout.
On to `Cc1ccc(S(=O)(=O)N/N=C/c2oc(-c3ccncc3)c(-c3ccncc3)c2[N+](=O)[O-])cc1`, for which the GI50 in assay [1], in [9], in assay [3], in assay [4], in assay [5] and in assay [6] was > 100 µM (inactive) in each case. Moreover, the GI50 in assay [7] and in [8] was > 100 µM (inactive) in each case.
